Experimental data published in US20090118365A1, “Use of Prodrugs of GABA B Agonists for Treating Neuropathic and Musculoskeletal Pain” (XenoPort, Inc, priority 2007, published 2009).

How the values were obtained:
[1] = rat, in vivo, 10 mg
Procedure: Rats were obtained commercially and were pre-cannulated in the both the ascending colon and the jugular vein. Animals were conscious at the time of the experiment. All animals were fasted overnight and until 4 hours post-dosing. […] Blood samples were analyzed as described according to the following procedure. […]
An API 2000 LC/MS/MS spectrometer equipped with Shimadzu 10ADVp binary pumps and a CTC HTS-PAL autosampler was used in the analysis. […] The peaks were integrated using Analyst 1.2 quantitation software.

[2] = male, cynomolgus monkey, in vivo
Source text: The following method can be used to determine the oral bioavailability of GABAB agonist prodrugs provided by the present disclosure in Cymologous monkeys, and therefore the appropriateness of the GABAB agonist prodrugs for use in oral sustained release dosage forms for treating neuropathic and musculoskeletal pain.
All plasma samples were subsequently analyzed for (R)-baclofen and intact prodrug using the LC/MS/MS assay described above.

[3] = in vivo; cited from earlier work

Row | maximum plasma concentration of (R)-baclofen (Cmax) relative to colonic administration of (R)-baclofen itself [1] | oral bioavailability as (R)-baclofen [2] | SMILES | elimination half-life [3]
1 | > 2 fold | greater than 80% | CC(C)C(=O)O[C@@H](OC(=O)NC[C@H](CC(=O)O)c1ccc(Cl)cc1)C(C)C [compound (4), (3R)-4-{[(1S)-2-methyl-1-(2-methylpropanoyloxy)propoxy]carbonylamino}-3-(4-chlorophenyl)butanoic acid] | 
2 |  |  | NCC(CC(=O)O)c1ccc(Cl)cc1 (racemic) [baclofen, (±)-4-Amino-3-(4-chlorophenyl)butanoic acid] | 3 to 4 h
